The values below are quoted from earlier work in patent US8273732B2, “Compositions for combating beta-lactamase-medicated antibiotic resistance using beta-lactamase inhibitors useful for injection” (Venus Remedies Limited, priority 2004, dated 2012).

Values after ≈ are worked out from the molar mass of the structure shown. Counter-ions that a name gives are not always drawn.

One series has as its system Acinetobacter baumannii. Particulars: 156 clinical isolates of A. baumannii.

On to `CC1(C)[C@H](C(=O)O)N2C(=O)C[C@H]2S1(=O)=O` [Sulbactam, sulbactam], for which the “MIC (90)” value in the series with Acinetobacter baumannii is 32 µg/mL (≈ 137 µM).
For `CO/N=C(\C(=O)N[C@@H]1C(=O)N2C(C(=O)O)=C(CSc3nc(=O)c(=O)[nH]n3C)CS[C@H]12)c1csc(N)n1` [ceftriaxone sodium, (6R,7R)-7-[2-(2-amino-4-thiazolyl)glyoxylamido]-8-oxo-3-[[(1,2,5,6-tetrahydro-2-methyl-5,6-dioxo-as-triazin-3-yl)thio]methyl]-5-thia-1-azabicyclo[4.2.0]oct-2-ene-2-carboxylic acid, 7^2-(Z)-(O-methyloxime), disodium salt, sesquaterhydrate], the solubility in ethanol entry (ethanol) was “very slightly soluble”. In addition, the solubility in methanol entry (methanol) is on record as “sparingly soluble”. The solubility in water result (water) is listed as “readily soluble”.
